In patent publication US10016486B1, “Methods and compositions using AMPK activators for pharmacological prevention of chronic pain” (ARIZONA BOARD OF REGENTS ON BEHALF OF THE UNIVERSITY OF …, priority 2013, dated 2018):
Entries after “also recorded” stand apart in the source; their conditions may differ.

Experiments:
[1] = tested on: Male ICR mice; assay: Plantar incision model: acute mechanical hypersensitivity (paw withdrawal thresholds, von Frey filaments); assay type: in vivo
Method: (§1) Behavior testing: For the testing, animals were placed in acrylic boxes with wire mesh floors and allowed to habituate for approximately 1 h on all testing days. Paw withdrawal thresholds were measured using calibrated von Frey filaments (Stoelting, Wood Dale, Ill.) by stimulating the plantar aspect of left hind paw using the up-down method (Chaplan et al., 1994). Plantar incision and behavioral testing: Prior to surgery all animals were assessed for paw withdrawal thresholds. A mouse model of incisional pain was used for this study (Banik et al., 2006). […] Sham controls underwent the same procedure but without the incision. The skin was apposed with 2 sutures of […]. […] The paw withdrawal thresholds were again measured at 1 h, 3 h and 24 h following the PGE2 injection. Statistical Analysis and Data Presentation: Data are shown as means and the standard error of the mean (±SEM) of 6 animals (for behavioral studies). Graph plotting and statistical analysis used Graphpad Prism Version 5.03 (Graph Pad Software, Inc. San Diego, Calif., USA). Statistical evaluation was performed by one- or two-way analysis of variance (ANOVA), followed by appropriate post-hoc tests. The a priori level of significance at 95% confidence level was considered at p<0.05.

[2] = tested on: Male ICR mice; assay: Plantar incision model: hyperalgesic priming precipitated by intraplantar PGE2 on day 14; assay type: in vivo
Method: as §1

[3] = tested on: translation regulation signaling pathways and nascent protein synthesis in injured nerves neurons; conditions: previously demonstrated; cited from earlier work
[4] = tested on: neuropathic allodynia induced by peripheral nerve injury; conditions: previously demonstrated; cited from earlier work
[5] = tested on: Male ICR mice; assay: Wound healing and wound closure after plantar incision (H & E staining); conditions: maximal doses (resveratrol 10 μg intraplantar, metformin 200 mg/kg i.p., OSU53 10 or 30 μg intraplantar); for wound size vs vehicle treated group: Day 3 after plantar incision; for wound closure: Day 7 after plantar incision
Method: Experimental animals: Male ICR mice (Harlan, 20-25 g) were used for the study.
Immunohistochemistry: To determine re-epithelialization, plantar skin was excised from the left hind paw of mice either 3 days or 7 days following plantar incision surgery. The skin was immediately cryoprotected and frozen in O.C.T compound and sectioned (20 μm) on cryostat. The sections were then fixed in formalin and immersed in 0.1% hematoxylin for 3 minutes, washed in tap water, then immersed in 0.1% eosin for 3 minutes, and dehydrated through graded ethanol (Protocol from University of Michigan Center for Organogenesis). Finally sections were coverslipped with Permount (Fisher, Pittsburgh, Pa.). The sections were imaged and the width between 2 epithelial edges was measured using Olympus BX51 microscope.

[6] = tested on: Male ICR mice; conditions: local injection of resveratrol into the hind paw following plantar incision; previously demonstrated; cited from earlier work
[7] = tested on: Male ICR mice; conditions: local injection of resveratrol into the hind paw following plantar incision; previously demonstrated; cited from earlier work; remark: listed apart in the source
[8] = tested on: ERK and mTOR signaling in sensory neurons; conditions: time- and concentration-dependent; previously demonstrated; cited from earlier work
[9] = general statement; cited from earlier work
[10] = tested on: AMPK; conditions: independent of upstream kinase LKB1; Lee et al., 2011; read-out: EC50, stimulation of AMPK kinase activity through direct activation; cited from earlier work
[11] = metformin lower doses (30, 100, 150) intra-peritoneal for 4 days starting 2 days prior to surgery
[12] = metformin maximal dose 200 mg/kg intra-peritoneal for 4 days starting 2 days prior to surgery
[13] = OSU53 10 or 30 μg injected locally into the hind paw around the incision

## CN(C)C(=N)N=C(N)N [metformin]
[1]; metformin 30, 100, 150 or 200 mg/kg intra-peritoneal for 4 days (FIG. 2 legend, all doses together)
  plantar incision-induced acute hypersensitivity: significantly blocked
[1]; metformin alone, 150 μg intra-peritoneal for 4 days starting 2 days prior to surgery (sub-efficacious dose)
  plantar incision-induced acute hypersensitivity: blunted acute hypersensitivity compared to vehicle treated mice but the effect was not significant
[1]; [11]
  plantar incision-induced acute mechanical hypersensitivity: not effective
[1]; [12]
  plantar incision-induced acute mechanical hypersensitivity: prevented
[2]; metformin 30, 100, 150 or 200 mg/kg intra-peritoneal for 4 days (FIG. 3 legend, all doses together)
  plantar incision-induced hyperalgesic priming precipitated by PGE2: significantly blocked
[2]; [11]
  hyperalgesic priming following PGE2 injection on day 14: significantly blocked
[2]; [12]
  hyperalgesic priming following PGE2 injection on day 14: prevented
[3]
  translation regulation signaling pathways and nascent protein synthesis in injured nerves neurons: inhibited
[4]
  neuropathic allodynia induced by peripheral nerve injury: resolution of neuropathic allodynia
[5]
  wound size vs vehicle treated group: No differences
  wound closure: completely closed

## Oc1ccc(C=Cc2cc(O)cc(O)c2)cc1 [resveratrol]
[1]; resveratrol alone, 3 μg injected in hind paw around incision on day of surgery and 24 hrs post-surgery (sub-efficacious dose)
  plantar incision-induced acute hypersensitivity: blunted acute hypersensitivity compared to vehicle treated mice but the effect was not significant
[1]; topical resveratrol cream (2 mg/ml in PEG), 100 μg, applied once immediately following incision, vs vehicle
  plantar incision-induced acute mechanical hypersensitivity: blunted; also recorded: blunted hypersensitivity though not significant
[1]; topical resveratrol cream, 100 μg, applied twice: immediately following incision and 24 hrs following incision, vs vehicle
  plantar incision-induced acute mechanical hypersensitivity: significantly blocked; also recorded: significantly attenuated
[2]; topical resveratrol 100 μg at the time of incision and 1 day post incision, PGE2 100 ng on day 14
  plantar incision-induced hyperalgesic priming precipitated by PGE2: significantly blocked; also recorded: prevented the development of hyperalgesic priming
[2]; topical resveratrol 100 μg once immediately following incision, PGE2 100 ng on day 14
  plantar incision-induced hyperalgesic priming precipitated by PGE2: abolished; also recorded: prevented the development of hyperalgesic priming
[6]
  incision-mediated mechanical hypersensitivity: attenuates; also recorded: dose-relatedly reverses
[7]
  hyperalgesic priming induced by incision: attenuates; also recorded: dose-relatedly reverses
[8]
  ERK and mTOR signaling in sensory neurons: profoundly inhibits
[9]
  bioavailability: lacks bioavailability
[5]
  wound size vs vehicle treated group: no differences
  wound closure: completely closed

## CC1(CN2C(=O)S/C(=C\c3ccc(NS(=O)(=O)c4ccc([N+](=O)[O-])c(C(F)(F)F)c4)cc3)C2=O)CCCCC1 [OSU53]
[1]; [13]
  plantar incision-induced acute mechanical hypersensitivity: significantly blocked; also recorded: dose-relatedly blocked
[2]; [13]
  hyperalgesic priming after PGE2 injection on day 14: significantly blocked; also recorded: dose-relatedly blocked
[10]
  EC50: 300 nM

## N#Cc1c(O)c2c(-c3ccc(-c4ccccc4O)cc3)csc2[nH]c1=O [A-769662]
[1]; A-769662 30 mg/kg intra-peritoneal for 4 days starting 2 days prior to surgery, 30 mg/kg
  plantar incision-induced acute mechanical hypersensitivity: did not block; also recorded: not effective
[2]; A-769662 30 mg/kg intra-peritoneal for 4 days starting 2 days prior to surgery
  hyperalgesic priming following PGE2 injection on day 14: significantly blocked
[3]
  translation regulation signaling pathways and nascent protein synthesis in injured nerves neurons: inhibited
[4]
  neuropathic allodynia induced by peripheral nerve injury: resolution of neuropathic allodynia
